# Results taken from ChEMBL document CHEMBL1201862, “PubChem BioAssay data set” (2004).
# Active and inactive are the calls of the source.
# How the values were obtained:
# [1] = cytotoxicity toward NIH3T3 fibroblasts, dose response, counter-screen, cell-based, ATP luminescence, mouse fibroblasts (AID 2010); assay type: functional;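 note: cells exposed to compound for about 90 hours before reading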
# [2] = cells
# [3] = inhibitors of intracellular T. cruzi replication, confirmation, NIH3T3 host cells, beta-gal luminescence (AID 2044); assay type: functional, cell-based;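 note: intracellular parasites grown in NIH/3T3 mouse fibroblasts as host cells; luminescent beta-galactosidase reporter signal from transgenic T. cruzi replicating inside host cells; inhibitors lower the luminescence signal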
# [4] = cells; assay type: functional
# [5] = biological target: Genome polyprotein (dengue virus type 2, UniProt P29990); test: Dengue-2 NS5 methyltransferase inhibitors, primary screen, biochemical, confirmation dose response (AID 588689); assay type: functional
# Sequence of Genome polyprotein (P29990 2492-3391 limits assumed): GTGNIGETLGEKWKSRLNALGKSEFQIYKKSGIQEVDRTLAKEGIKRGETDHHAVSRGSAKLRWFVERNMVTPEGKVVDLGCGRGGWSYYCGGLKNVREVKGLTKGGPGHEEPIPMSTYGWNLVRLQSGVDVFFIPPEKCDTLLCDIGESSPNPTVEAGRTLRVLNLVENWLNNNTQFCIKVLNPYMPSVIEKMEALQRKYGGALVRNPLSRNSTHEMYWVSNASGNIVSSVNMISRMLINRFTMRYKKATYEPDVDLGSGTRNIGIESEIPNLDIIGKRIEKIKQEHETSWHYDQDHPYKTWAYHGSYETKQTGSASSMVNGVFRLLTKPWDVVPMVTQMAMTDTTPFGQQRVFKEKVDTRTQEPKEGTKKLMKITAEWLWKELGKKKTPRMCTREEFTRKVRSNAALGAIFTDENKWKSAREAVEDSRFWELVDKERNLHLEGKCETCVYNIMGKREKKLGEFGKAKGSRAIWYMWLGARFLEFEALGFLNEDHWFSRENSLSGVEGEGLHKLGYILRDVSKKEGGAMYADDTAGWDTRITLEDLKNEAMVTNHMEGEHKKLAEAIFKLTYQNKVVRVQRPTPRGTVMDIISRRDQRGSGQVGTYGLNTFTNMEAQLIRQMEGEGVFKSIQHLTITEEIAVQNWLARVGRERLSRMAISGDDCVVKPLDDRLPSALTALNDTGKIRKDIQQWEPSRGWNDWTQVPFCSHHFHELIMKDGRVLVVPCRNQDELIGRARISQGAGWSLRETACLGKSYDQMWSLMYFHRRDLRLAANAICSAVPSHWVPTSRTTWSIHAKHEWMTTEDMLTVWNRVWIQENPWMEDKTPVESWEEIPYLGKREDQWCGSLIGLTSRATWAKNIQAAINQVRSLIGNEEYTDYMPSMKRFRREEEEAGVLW
# [6] = biological target: Bifunctional protein GlmU (Mycobacterium tuberculosis, UniProt P9WMN3); test: Inhibitors of Mycobacterial Glucosamine-1-phosphate acetyl transferase (GlmU). Secondary screen.; parameters: species or system Mycobacterium tuberculosis H37Rv
# Sequence of Bifunctional protein GlmU (P9WMN3 whole entry): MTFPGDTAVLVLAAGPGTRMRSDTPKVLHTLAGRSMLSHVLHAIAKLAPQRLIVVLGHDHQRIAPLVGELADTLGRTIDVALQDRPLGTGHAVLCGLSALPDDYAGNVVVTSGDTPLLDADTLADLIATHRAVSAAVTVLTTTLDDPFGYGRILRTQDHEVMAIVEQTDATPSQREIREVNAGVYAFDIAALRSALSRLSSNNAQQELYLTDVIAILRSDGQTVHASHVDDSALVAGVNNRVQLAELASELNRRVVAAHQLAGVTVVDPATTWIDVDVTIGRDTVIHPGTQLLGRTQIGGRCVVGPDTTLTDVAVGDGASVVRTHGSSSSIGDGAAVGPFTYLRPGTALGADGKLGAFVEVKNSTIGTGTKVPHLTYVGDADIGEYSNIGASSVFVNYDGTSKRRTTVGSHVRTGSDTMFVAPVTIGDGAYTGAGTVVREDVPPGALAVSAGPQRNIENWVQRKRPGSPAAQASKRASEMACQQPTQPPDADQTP
# [7] = biological target: T1, Replicative DNA helicase DnaB (Mycobacterium tuberculosis, UniProt P9WMR3); test: DnaB intein splicing inhibitors, dose response, biochemical, cell-free fluorescence (AID 449749); assay type: functional
# T1 sequence (P9WMR3 whole entry): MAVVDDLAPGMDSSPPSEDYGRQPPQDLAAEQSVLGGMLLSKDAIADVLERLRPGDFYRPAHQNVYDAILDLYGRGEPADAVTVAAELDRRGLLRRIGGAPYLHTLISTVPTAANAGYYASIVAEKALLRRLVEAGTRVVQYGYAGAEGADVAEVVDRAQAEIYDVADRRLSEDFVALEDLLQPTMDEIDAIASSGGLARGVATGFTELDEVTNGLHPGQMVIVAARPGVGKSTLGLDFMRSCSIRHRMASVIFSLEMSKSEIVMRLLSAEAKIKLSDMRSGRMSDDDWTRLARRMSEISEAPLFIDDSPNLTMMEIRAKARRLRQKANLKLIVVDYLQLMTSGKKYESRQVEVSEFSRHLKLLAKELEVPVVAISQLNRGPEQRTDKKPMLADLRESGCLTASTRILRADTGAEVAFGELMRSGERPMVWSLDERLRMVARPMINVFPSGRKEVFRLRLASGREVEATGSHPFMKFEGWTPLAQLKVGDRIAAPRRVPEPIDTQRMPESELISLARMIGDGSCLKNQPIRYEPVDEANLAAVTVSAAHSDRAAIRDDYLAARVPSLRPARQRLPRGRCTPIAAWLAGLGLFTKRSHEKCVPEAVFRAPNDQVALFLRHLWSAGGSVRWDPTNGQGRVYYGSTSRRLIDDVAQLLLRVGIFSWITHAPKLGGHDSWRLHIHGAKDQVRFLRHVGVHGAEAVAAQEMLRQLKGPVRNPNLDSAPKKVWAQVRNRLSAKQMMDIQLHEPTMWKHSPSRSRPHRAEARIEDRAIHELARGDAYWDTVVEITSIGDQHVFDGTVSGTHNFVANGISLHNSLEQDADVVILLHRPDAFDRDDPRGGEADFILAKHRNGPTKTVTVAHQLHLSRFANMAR
# [8] = biological target: T2, Protein RecA (Mycobacterium tuberculosis, UniProt P9WHJ3); test: Fluorescence Cell-Free Homogeneous Dose Retest to Identify Inhibitors of RecA-Intein Splicing Activity. [Related pubchem assays (depositor defined):AID2097, AID2223, AID489010, AID492950]; assay type: functional
# T2 sequence (P9WHJ3 whole entry): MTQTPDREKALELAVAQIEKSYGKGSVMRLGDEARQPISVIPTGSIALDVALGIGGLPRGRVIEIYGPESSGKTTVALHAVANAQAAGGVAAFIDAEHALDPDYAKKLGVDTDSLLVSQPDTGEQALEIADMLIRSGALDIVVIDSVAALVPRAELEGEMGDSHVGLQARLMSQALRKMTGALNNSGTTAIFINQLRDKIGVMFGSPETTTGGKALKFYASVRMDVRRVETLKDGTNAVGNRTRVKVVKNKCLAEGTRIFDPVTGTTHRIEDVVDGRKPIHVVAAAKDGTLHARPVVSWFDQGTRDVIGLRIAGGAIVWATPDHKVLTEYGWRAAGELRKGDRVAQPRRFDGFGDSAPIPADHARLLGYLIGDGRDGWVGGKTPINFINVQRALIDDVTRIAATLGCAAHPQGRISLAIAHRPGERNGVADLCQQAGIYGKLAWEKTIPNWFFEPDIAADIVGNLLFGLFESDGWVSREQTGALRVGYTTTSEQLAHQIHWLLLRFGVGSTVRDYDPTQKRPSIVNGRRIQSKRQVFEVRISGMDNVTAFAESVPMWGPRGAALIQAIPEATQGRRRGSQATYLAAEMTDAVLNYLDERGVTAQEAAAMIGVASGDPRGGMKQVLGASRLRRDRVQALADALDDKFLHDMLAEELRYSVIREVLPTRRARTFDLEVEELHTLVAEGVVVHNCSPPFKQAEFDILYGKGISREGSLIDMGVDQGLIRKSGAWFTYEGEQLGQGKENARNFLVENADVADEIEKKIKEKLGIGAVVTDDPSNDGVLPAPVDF
# [9] = biological target: T3, Mannose-6-phosphate isomerase (Homo sapiens, UniProt P34949); test: human PMI inhibitors, high substrate, primary screen, biochemical, fluorescence intensity, high mannose 6-phosphate (AID 1220)
# T3 sequence (P34949 whole entry): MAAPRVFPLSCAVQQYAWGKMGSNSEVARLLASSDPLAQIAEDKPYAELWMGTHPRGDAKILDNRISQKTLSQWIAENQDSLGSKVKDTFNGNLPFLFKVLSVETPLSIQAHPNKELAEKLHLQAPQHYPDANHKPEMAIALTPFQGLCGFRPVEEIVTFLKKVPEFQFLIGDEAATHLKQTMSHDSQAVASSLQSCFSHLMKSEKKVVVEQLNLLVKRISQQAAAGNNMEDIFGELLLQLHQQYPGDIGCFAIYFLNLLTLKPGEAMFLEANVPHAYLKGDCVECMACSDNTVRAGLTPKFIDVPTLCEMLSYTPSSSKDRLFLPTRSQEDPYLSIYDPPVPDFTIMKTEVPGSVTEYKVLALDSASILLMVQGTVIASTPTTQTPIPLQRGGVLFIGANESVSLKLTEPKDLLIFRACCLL
# [10] = biological target: T3, Mannose-6-phosphate isomerase; test: inhibitors of human PMI, primary screen, biochemical, fluorescence intensity, coupled assay (AID 1209)
# [11] = cytotoxicity in HPDE-C7 cells, cell-based, fluorescence, HTS (AID 430); assay type: functional; settings: Homo sapiens
# [12] = biological target: Glyceraldehyde-3-phosphate dehydrogenase (Homo sapiens, UniProt P04406)
# Sequence of Glyceraldehyde-3-phosphate dehydrogenase (P04406 whole entry): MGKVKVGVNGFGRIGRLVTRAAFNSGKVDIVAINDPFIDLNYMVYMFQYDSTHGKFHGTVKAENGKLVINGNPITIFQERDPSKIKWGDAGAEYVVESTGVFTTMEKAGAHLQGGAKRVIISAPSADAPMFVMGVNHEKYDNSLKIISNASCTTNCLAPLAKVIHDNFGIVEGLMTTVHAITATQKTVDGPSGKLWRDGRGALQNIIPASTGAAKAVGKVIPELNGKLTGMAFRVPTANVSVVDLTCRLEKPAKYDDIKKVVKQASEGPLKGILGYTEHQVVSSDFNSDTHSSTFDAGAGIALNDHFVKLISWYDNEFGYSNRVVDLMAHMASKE
# [13] = cytotoxicity in KRAS-transformed pancreatic duct cells, primary screen, cell-based, fluorescence, HTS (AID 431); assay type: functional; settings: Homo sapiens;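 note: cell line used: HPDE-C7K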
# [14] = biological target: T4, Bcl-2-related protein A1 (Mus musculus, UniProt Q07440); test: Bfl-1 inhibitors, primary screen, biochemical, fluorescence polarization, FITC-Bid, mouse (AID 432)
# T4 sequence (Q07440 whole entry): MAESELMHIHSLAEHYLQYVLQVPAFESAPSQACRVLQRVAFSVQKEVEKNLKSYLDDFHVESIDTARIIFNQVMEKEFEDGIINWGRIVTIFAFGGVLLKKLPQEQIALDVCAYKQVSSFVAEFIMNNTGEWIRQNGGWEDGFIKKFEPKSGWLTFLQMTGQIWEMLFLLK
# [15] = biological target: T4, Bcl-2-related protein A1; test: Bfl-1 inhibitors blocking BH3 peptide binding, confirmation, biochemical, TR-FRET, mouse Bfl-1 (AID 621);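 note: TR-FRET binding of GST-Bfl-1 to FITC-labelled Bid peptide via terbium antibody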
# [16] = biological target: T4, Bcl-2-related protein A1; test: Bfl-1 binding inhibitors, SAR follow-up, biochemical, fluorescence polarization (AID 1070)
# [17] = biological target: T5, Rac GTPase-activating protein 1 (Homo sapiens, UniProt Q9H0H5); test: MgcRacGAP GTPase-activating activity inhibitors, confirmation, biochemical, ADP Hunter fluorescence, primary and confirmatory (AID 624330); assay type: functional
# T5 sequence (Q9H0H5 whole entry): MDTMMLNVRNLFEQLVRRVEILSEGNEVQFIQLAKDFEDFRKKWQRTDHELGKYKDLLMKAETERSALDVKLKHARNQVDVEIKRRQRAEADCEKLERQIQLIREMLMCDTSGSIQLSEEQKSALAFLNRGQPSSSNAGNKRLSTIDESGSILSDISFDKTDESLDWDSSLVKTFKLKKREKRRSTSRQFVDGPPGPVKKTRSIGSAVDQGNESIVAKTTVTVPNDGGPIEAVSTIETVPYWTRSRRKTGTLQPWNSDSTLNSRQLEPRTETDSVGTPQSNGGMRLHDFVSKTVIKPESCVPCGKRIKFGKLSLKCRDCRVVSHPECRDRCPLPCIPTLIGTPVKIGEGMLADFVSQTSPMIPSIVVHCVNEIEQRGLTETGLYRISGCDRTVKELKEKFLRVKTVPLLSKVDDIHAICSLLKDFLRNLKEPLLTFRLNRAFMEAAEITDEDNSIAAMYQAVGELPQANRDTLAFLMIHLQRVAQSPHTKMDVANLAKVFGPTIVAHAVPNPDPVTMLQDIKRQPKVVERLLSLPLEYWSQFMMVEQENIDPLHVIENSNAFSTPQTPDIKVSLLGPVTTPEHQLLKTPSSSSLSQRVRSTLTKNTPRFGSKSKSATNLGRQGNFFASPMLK
structure (smiles),measurement,setting,value
COc1cccc(OCCNC(=O)c2cc([N+](=O)[O-])cc([N+](=O)[O-])c2)c1,EC50,[1],> 60 µM (not active)
same,EC50,[2],0.086 µM (active)
same,EC50,[3],< 0.1 µM (active)
same,IC50,[4],0.36 µM (active)
O=C(O)c1cccc(Nc2cc(Cl)c3nonc3c2[N+](=O)[O-])c1,IC50,[5],10.7 µM (active)
same,IC50,[6],131 µM (active)
same,AC50,[7],2.05 µM (active)
same,EC50,[8],2.52 µM (active)
Cc1ccc(-n2c(N)c(C(N)=O)sc2=S)c(C)c1,IC50,[9],> 50 µM (not active)
same,IC50,[10],> 50 µM (not active)
COc1ccc2c3c(cccc13)NN=C2C,EC50,[11],13 µM (active)
same,IC50,[12],> 100 µM (not active)
same,EC50,[13],9.74 µM (active)
same,IC50,[14],5.44 µM (active)
same,IC50,[15],> 100 µM (not active)
same,IC50,[16],> 100 µM (not active)
CC(=O)Oc1ccc2c(=O)c(Oc3ccccc3)coc2c1OC(C)=O,IC50,[17],108 µM (active)
same,IC50,[10],> 50 µM (not active)
